Source: ChEMBL document CHEMBL1135520, “Rational design and synthesis of a novel thyroid hormone antagonist that blocks coactivator recruitment” (J Med Chem, 2002)

Experiments:
[1] = target: T1, Thyroid hormone receptor beta (Homo sapiens, UniProt P10828); assay: Half-maximum activation of human Thyroid hormone receptor beta 1 (hTRbeta1)
T1 sequence (P10828 whole entry): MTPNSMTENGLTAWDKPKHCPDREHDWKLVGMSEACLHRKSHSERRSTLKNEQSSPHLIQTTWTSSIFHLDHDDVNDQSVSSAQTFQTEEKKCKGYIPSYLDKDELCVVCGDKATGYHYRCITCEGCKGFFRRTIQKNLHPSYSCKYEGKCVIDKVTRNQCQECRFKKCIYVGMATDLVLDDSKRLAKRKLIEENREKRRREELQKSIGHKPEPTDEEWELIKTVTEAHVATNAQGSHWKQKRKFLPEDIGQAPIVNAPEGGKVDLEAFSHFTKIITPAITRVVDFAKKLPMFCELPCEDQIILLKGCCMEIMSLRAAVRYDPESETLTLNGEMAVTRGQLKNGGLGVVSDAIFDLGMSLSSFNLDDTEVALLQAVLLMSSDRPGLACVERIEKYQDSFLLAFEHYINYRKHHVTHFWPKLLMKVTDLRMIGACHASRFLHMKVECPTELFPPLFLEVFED

[2] = target: T2, Thyroid hormone receptor alpha (Homo sapiens, UniProt P10827); assay: Half-maximum activation of human Thyroid hormone receptor alpha-1 (hTRalpha1)
T2 sequence (P10827 whole entry): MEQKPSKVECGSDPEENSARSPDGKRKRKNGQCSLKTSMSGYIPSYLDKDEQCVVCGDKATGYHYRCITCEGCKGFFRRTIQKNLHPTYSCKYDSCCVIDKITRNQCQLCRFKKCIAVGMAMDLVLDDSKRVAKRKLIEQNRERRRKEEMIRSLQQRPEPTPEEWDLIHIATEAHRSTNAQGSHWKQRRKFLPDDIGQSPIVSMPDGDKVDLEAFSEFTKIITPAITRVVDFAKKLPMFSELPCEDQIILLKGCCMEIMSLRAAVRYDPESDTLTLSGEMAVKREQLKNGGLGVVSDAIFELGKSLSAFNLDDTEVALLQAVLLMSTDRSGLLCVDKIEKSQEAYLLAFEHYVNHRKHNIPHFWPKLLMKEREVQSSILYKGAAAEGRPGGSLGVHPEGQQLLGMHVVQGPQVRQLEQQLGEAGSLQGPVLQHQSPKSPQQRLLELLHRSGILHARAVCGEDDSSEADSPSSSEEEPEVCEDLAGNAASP

[3] = target: T1, Thyroid hormone receptor beta
[4] = target: T2, Thyroid hormone receptor alpha

| SMILES | IC50 [1] [µM] | IC50 [2] [µM] | Kd [3] [µM] | Kd [4] [µM] | EC50 [1] [µM] |
| --- | --- | --- | --- | --- | --- |
| Cc1cc(OCC(=O)O)cc(C)c1Cc1cc(C#Cc2ccc([N+](=O)[O-])cc2)c(O)c(C(C)C)c1 | 0.37 | 0.95 | 0.02 | 0.093 |  |
| CCCCCc1ccc(C#Cc2cc(Cc3c(C)cc(OCC(=O)O)cc3C)cc(C(C)C)c2O)cc1 |  |  | 0.00052 | 0.0052 | 0.38 |
| Cc1cc(OCC(=O)O)cc(C)c1Cc1cc(C#Cc2ccc(N)cc2)c(O)c(C(C)C)c1 |  |  | 0.09 | 0.33 |  |
| Cc1cc(OCC(=O)O)cc(C)c1Cc1cc(C#Cc2ccccc2)c(O)c(C(C)C)c1 |  |  | 0.037 | 0.49 | 0.5 |
| Cc1cc(OCC(=O)O)cc(C)c1Cc1cc(-c2ccc([N+](=O)[O-])cc2)c(O)c(C(C)C)c1 | 0.68 | 5 | 0.035 | 0.2 |  |
